Values after ≈ are worked out from the molar mass of the structure shown. Read-outs that look alike come from different tables or passages of the source.
How the values were obtained:
[1] = target: T1, sigma-1 receptor (guinea pig brain) (Cavia porcellus, UniProt Q60492); test: Antagonism of haloperidol binding to guinea pig sigma-1 receptors; conditions: sigma-1, guinea pig brain; for % Inhibition: test concentration not given
T1 construct: from tissue; host or cells: guinea pig brain

sigma-1 receptors = sigma-1 receptors (Cavia porcellus, UniProt Q60492); test: Behavioral receptor assays: sigma-1; assay type: binding; conditions: guinea pig
Procedure: (§1) Various compounds of the present invention (19, 31, and 32) were evaluated in a group of assays based on mammalian cellular receptors associated with behavior. The group consisted of assays base on human dopamine D1, D2L, D3, D4.2, D4.4, D4.7, and D5 receptors, and the transporter; human serotonin 5-HT1A, 5-HT1B, 5-HT1D, 5-HT2A, 5-HT2B, 5-HT2C, 5-HT3, 5-HT5A, 5-HT6, and 5-HT7 receptors, and the human serotonin transporter; guinea pig 5-HT4 and sigma-1 receptors; rat sigma-2 and muscarinic receptors; and human NK1-3 receptors. The following table presents a subset of the results of these assays.

sigma-2 = sigma-2 (Rattus norvegicus, UniProt Q5U3Y7); test: Behavioral receptor assays: sigma-2; assay type: binding; conditions: read-out: Receptors (IC50) sigma-2
Procedure: as §1

Permeability = assay type: in vitro ADME; conditions: not told; read-out: Permeability PupperX10^6 cm/s
human sigma receptor = human sigma receptor (Homo sapiens, UniProt Q99720); test: Human sigma receptor assay; assay type: binding; conditions: read-out: IC50 Against Human Sigma Receptor
Procedure: (§2) The ability of test compounds to displace sigma ligands in vitro was determined by the methods of de Costa et al. (FEBS Lett. 251:53 (1989)) and De Haven-Hudkine et al. (Eur. J. Pharmacol. 227:372 (1992)) having guinea pig as a receptor source. Whereas, the methods of Gamapatju et al. (J. Pharm.&Exp. 289:251 (1999)) were utilized for human sigma receptors.

[2] = target: T2, guinea pig sigma receptor (Cavia porcellus, UniProt Q60492); test: Guinea pig sigma receptor assay; assay type: binding; conditions: read-out: IC50 Against Guinea Pig Sigma Receptor
T2 construct: having guinea pig as a receptor source; from tissue; host or cells: guinea pig
Procedure: as §2

[3] = Pharmacokinetics in a single rat; assay type: in vivo; conditions: for concentration at 4 h: brain, 4 h post dose, read-out: Brain Tissue Distribution (4 h post dose, ng/g tissue); for concentration at 4 h / clearance / AUC(0-t): iv; for concentration at 4 h / AUC(0-t) / T1/2α / T1/2β: rat; for clearance / AUC(0-t): plasma; for clearance / Vb / Vc: rat (270 g); for AUC(0-t): read-out: AUC0-4h
Procedure: Pharmacokinetic properties of the compounds were evaluated in a single rat after dosing 4 and 5 mg/kg, respectively. The dose was well tolerated by the animal. The data below is based on a 270 g rat. Numerous time points were taken during a 4 hour period where a 0.1 mL volume of plasma was transferred to a 1.4 mL polypropylene vial and 0.4 mL of chilled methanol (0° C.) was added. The resulting percipitate was centrifuged at 7000 rpm at 4° C. for 5 min. The resulting supernatant was analysed by HPLC using a sample volume of 0.05 mL alongside standard solutions prepared by “spiking” known amounts of the compounds into the control plasma. Standard solution of the compounds were prepared in methanol.

GSH Level = test: Safety Assessment: GSH Level
RedOx State = test: Safety Assessment: RedOx State
DNA Synthesis = test: Safety Assessment: DNA Synthesis
Cell Viability = test: Safety Assessment: Cell Viability
Protein Synthesis = test: Safety Assessment: Protein Synthesis
Membrane Integrity = test: Safety Assessment: Membrane Integrity
Caspase-3 = test: Safety Assessment: Caspase-3 Induction
CYP1A2 = target: T3, CYP1A2 (Homo sapiens, UniProt P05177); test: In Vitro Metabolism (isozymes of P450) CYP1A2
T3 sequence (P05177 1-516): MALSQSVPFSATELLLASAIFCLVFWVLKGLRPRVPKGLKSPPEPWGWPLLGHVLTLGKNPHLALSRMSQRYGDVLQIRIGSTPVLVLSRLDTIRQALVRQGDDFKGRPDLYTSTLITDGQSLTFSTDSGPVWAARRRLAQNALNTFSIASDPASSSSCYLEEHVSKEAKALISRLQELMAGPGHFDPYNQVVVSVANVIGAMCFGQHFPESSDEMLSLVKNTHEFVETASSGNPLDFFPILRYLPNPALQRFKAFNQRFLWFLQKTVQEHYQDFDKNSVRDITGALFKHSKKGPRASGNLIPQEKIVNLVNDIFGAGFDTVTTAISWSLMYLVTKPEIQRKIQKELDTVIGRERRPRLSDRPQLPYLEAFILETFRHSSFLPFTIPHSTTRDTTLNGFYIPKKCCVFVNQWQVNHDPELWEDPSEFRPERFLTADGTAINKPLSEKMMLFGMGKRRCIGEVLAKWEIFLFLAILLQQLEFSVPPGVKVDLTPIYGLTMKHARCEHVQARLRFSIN

CYP2C9 = CYP2C9 (Homo sapiens, UniProt P11712); test: In Vitro Metabolism (isozymes of P450) CYP2C9
CYP2D6 = CYP2D6 (Homo sapiens, UniProt P10635); test: In Vitro Metabolism (isozymes of P450) CYP2D6
CYP3A4 = CYP3A4 (Homo sapiens, UniProt P08684); test: In Vitro Metabolism (isozymes of P450) CYP3A4
CYP2C19 = CYP2C19 (Homo sapiens, UniProt P33261); test: In Vitro Metabolism (isozymes of P450) CYP2C19
CYP2C19, sequence (P33261 whole entry): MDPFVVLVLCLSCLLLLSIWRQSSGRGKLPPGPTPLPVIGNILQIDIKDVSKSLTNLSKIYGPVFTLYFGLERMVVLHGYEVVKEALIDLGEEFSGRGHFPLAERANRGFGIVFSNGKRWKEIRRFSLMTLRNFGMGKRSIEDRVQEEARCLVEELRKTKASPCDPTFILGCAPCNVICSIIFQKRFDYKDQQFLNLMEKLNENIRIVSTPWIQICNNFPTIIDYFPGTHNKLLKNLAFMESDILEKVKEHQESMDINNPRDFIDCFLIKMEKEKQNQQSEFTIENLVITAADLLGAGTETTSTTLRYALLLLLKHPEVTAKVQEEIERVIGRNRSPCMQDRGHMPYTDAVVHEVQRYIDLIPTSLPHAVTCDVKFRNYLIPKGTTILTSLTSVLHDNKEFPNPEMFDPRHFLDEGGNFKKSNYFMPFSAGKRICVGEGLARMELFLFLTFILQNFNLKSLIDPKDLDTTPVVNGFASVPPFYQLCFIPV

T1 sequence (Q60492 whole entry): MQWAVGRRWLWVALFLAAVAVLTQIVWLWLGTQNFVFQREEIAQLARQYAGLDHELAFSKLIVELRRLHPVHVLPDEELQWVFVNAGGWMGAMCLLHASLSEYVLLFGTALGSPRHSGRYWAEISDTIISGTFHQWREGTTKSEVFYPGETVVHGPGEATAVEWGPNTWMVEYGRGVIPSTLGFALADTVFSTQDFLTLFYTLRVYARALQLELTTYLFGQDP
T2 sequence (Q60492 whole entry): as above
sigma-1 receptors, sequence (Q60492 whole entry): as above
CYP3A4, sequence (P08684 whole entry): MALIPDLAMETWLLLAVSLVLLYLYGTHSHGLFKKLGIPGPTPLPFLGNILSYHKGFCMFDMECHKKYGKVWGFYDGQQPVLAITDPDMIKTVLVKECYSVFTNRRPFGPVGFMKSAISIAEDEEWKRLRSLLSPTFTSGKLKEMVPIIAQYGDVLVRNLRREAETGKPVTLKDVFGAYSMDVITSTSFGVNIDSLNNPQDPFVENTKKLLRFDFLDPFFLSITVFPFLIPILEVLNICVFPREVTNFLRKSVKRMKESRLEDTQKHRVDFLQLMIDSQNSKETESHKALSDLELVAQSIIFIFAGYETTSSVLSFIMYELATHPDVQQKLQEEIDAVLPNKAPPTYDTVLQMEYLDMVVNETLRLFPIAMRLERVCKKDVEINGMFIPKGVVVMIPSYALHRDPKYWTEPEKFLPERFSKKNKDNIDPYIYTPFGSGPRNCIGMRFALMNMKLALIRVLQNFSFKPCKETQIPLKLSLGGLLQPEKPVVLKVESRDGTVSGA
human sigma receptor, sequence (Q99720 whole entry): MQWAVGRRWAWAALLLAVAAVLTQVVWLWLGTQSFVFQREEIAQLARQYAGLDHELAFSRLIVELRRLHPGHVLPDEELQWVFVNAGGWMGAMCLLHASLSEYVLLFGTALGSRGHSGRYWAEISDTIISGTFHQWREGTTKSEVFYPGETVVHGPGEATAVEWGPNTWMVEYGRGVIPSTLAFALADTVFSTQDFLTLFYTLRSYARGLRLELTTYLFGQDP
sigma-2, sequence (Q5U3Y7 whole entry): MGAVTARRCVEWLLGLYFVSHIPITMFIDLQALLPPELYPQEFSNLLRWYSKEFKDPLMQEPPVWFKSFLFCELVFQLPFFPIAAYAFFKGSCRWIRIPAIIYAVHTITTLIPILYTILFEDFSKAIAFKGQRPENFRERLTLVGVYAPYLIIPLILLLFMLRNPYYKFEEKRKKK
CYP2C9, sequence (P11712 whole entry): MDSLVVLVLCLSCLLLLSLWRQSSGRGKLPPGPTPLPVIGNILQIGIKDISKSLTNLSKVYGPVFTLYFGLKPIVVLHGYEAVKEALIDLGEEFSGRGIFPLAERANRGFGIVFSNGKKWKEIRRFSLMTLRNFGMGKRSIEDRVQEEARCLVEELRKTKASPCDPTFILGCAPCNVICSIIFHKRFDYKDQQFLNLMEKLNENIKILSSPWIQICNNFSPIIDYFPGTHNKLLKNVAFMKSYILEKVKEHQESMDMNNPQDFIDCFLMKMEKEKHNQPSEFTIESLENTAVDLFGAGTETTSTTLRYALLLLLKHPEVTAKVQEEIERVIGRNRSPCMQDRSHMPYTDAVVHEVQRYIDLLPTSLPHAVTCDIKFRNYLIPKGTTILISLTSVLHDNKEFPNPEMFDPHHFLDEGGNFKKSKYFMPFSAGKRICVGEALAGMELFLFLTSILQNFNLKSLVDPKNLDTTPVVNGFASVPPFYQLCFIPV
CYP2D6, sequence (P10635 whole entry): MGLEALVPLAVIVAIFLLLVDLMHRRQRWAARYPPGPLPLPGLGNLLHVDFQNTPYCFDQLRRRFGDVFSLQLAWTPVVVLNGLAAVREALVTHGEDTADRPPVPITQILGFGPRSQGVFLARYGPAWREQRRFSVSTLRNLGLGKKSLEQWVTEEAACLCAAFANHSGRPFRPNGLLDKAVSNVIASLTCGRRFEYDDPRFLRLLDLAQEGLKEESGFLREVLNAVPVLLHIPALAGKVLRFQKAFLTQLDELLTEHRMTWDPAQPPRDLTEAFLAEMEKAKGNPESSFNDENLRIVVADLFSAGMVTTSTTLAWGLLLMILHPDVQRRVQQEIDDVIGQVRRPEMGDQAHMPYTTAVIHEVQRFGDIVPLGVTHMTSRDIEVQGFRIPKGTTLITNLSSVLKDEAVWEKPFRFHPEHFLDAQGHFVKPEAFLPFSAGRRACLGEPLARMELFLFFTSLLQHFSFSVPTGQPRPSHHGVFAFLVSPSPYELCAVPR

## OC1CCC2(CCN(Cc3ccc(F)cc3)CC2)Nc2ccccc21 (racemic) [Compound 32, 1′-(4-fluorobenzyl)-3,4-dihydrospiro[5H-1-benzazepine-2(1H)-4′-piperidin]-5ol]
[1]
  IC50: < 0.01 µM
  % Inhibition: >50%
sigma-1 receptors
  IC50: < 0.01 µM
sigma-2
  IC50: < 1 µM
Permeability
  Papp: 22.4 ×10⁻⁶ cm/s
Human sigma receptor
  IC50: < 0.1 µM
[2]
  IC50: < 0.01 µM
[3]; 5 mg/kg i.v.
  concentration at 4 h: 134 ng/g
  clearance: 31.7 mL/min
  Vb: 42 L
  Vc: 1.1 L
  T1/2α: 12.6 min
  T1/2β: 120 min
[3]; 5 mg/kg i.v., 10% hydroxypropyl-p-cyclodextrin
  AUC(0-t): 700 ng·h/mL
Log D7.5
  Log D7.5: 3.7
Solubility
  solubility: 83 µM (≈ 28.3 µg/mL)
Protein Binding
  fraction unbound: < 0.01
Metabolic Stability
  Metabolic Stability (% parent remaining): 1 % parent remaining
GSH Level
  GSH Level (% Control): <10 % Control
RedOx State
  RedOx State: 17 % inhibition
DNA Synthesis
  DNA Synthesis: <10 % inhibition
Cell Viability
  Cell Viability: <10 % inhibition
Protein Synthesis
  Protein Synthesis: <10 % inhibition
Membrane Integrity
  Membrane Integrity: <10 % inhibition
Caspase-3
  Caspase-3 Induction % Induction: <10 % Induction
CYP1A2
  CYP1A2: 20 % inhibition
CYP2C9
  CYP2C9: 11 % inhibition
CYP2D6
  CYP2D6: 102 % inhibition
CYP3A4
  CYP3A4: 67 % inhibition
CYP2C19
  CYP2C19: 42 % inhibition

## O=C1CCC2(CCN(Cc3ccc(F)cc3)CC2)Nc2ccccc21 [Compound 31, 1′-(4-fluorobenzyl)-3,4-dihydrospiro[5H-1-benzazepine-2(1H)-4′-piperidin]-5-one]
[1]
  IC50: < 0.01 µM
  % Inhibition: >50%
sigma-1 receptors
  IC50: < 0.01 µM
sigma-2
  IC50: < 1 µM
Permeability
  Papp: 22.9 ×10⁻⁶ cm/s
Human sigma receptor
  IC50: < 0.1 µM
[2]
  IC50: < 0.01 µM
[3]; 4 mg/kg i.v.
  concentration at 4 h: 70 ng/g
  clearance: 10.2 mL/min
  Vb: 0.65 L
  Vc: 0.23 L
  T1/2α: 7.2 min
  T1/2β: 48 min
[3]; 4 mg/kg i.v., Peg400:Dextrose (2:3 v/v)
  AUC(0-t): 1480 ng·h/mL
Log D7.5
  Log D7.5: 2.19
Solubility
  solubility: 192 µM (≈ 65 µg/mL)
Protein Binding
  fraction unbound: 0.04
Metabolic Stability
  Metabolic Stability (% parent remaining): 44 % parent remaining
GSH Level
  GSH Level (% Control): <10 % Control
RedOx State
  RedOx State: 28 % inhibition
DNA Synthesis
  DNA Synthesis: <10 % inhibition
Cell Viability
  Cell Viability: <10 % inhibition
Protein Synthesis
  Protein Synthesis: 65 % inhibition
Membrane Integrity
  Membrane Integrity: <10 % inhibition
Caspase-3
  Caspase-3 Induction % Induction: <10 % Induction
CYP1A2
  CYP1A2: <10 % inhibition
CYP2C9
  CYP2C9: <10 % inhibition
CYP2D6
  CYP2D6: 44 % inhibition
CYP3A4
  CYP3A4: 22 % inhibition
CYP2C19
  CYP2C19: 28 % inhibition

Source: patent publication US6476019B1, “Spirocyclic ligands for sigma receptors, and libraries and methods of use thereof” (Sepracor Inc., priority 1999, dated 2002)
